Test results taken from paper PMC9986876, “Prediction of Antileishmanial Compounds: General Model, Preparation, and Evaluation of 2-Acylpyrrole Derivatives” (Journal of Chemical Information and Modeling, 2022).

Key:
L. major promastigotes = settings: in vitro; cited from earlier work
[1] = Cytotoxicity assay on macrophages (resazurin); format: cell-based, BALB/c mice; settings: mouse, J774 macrophages, macrophages J774, 24 h exposure, Table 2; values marked e correspond to 100 μg/mL, the higher dose tested
Method: The assay was carried out as previously described.[30] J774 macrophages cell lines were seeded (5 × 10^4 cells/well) in 96-well flat-bottom microplates with 100 μL of RPMI 1640 medium. The cells were allowed to attach for 24 h at 37 °C and 5% CO2, and the medium was replaced by different concentrations of the compounds in 200 μL of medium and exposed for another 24 h. Growth controls and signal-to-noise were also included. Afterward, a volume of 20 μL of 2.5 mM resazurin solution was added, and plates were returned to the incubator for another 3 h to evaluate cell viability. The reduction of resazurin was determined by fluorometry as in the promastigote assay. Each concentration was assayed three times.

[2] = test system: L. donovani (MHOM/IN/80/DD8) promastigotes; assay: In vitro promastigote susceptibility assay (resazurin); format: cell-based; settings: for IC50: Leishmania donovani, L. donovani promastigotes, 48 h at 26 °C, triplicate, N/A = not active at 100 μg/mL; for SI (selectivity index, SI = CC50/IC50): CC50 J774 / IC50 L. donovani promastigotes
Method: (§1) The following species of Leishmania were used: L. donovani (MHOM/IN/80/DD8) was purchased (ATCC, USA) and L. amazonensis (MHOM/Br/79/Maria) was kindly provided by Prof. Alfredo Toraño (Instituto de Salud Carlos III, Madrid). Promastigotes were cultured in Schneider’s insect medium supplemented with 10% heat-inactivated fetal bovine serum (FBS) and 1000 U/L of penicillin plus 100 mg/L of streptomycin in 25 mL culture flasks at 26 °C. […] New samples of the compounds have been prepared according to the protocol described above, and subsequently solutions of the chemical compound to be assayed have been dissolved in DMSO at 50 mg/mL. […] Growth control and signal-to-noise control were also included. The final solvent (DMSO) concentrations never exceeded 0.5% (v/v) warranting no effect on parasite proliferation or morphology. After 48 h at 26 °C, 20 μL of a 2.5 mM resazurin solution was added to each well and the plates were returned to the incubator for another 3 h. […] Growth inhibition (%) was calculated by 100 – [(RFU treated wells – RFU signal-to-noise)/(RFU untreated – RFU signal-to-noise) × 100]. All tests were carried out in triplicate. Miltefosine (Sigma-Merck, Madrid, Spain) was used as the reference drug and was evaluated under the same conditions. […] The selectivity index (SI) was calculated as the ratio between cytotoxicity (CC50) and activity against parasites (IC50).

[3] = test system: L. amazonensis (MHOM/Br/79/Maria) promastigotes; assay: as above; format: cell-based; settings: for SI (selectivity index, SI = CC50/IC50): CC50 J774 / IC50 L. amazonensis promastigotes; for IC50: Leishmania amazonensis; for IC50 / IC50 ± SD: L. amazonensis promastigotes, 48 h at 26 °C, triplicate, N/A = not active at 100 μg/mL
Method: as §1

Structure (SMILES) | IC50 (L. major promastigotes) [µM] | CC50 at 24 h [1] [µM] | IC50 [2] | SI (selectivity index, SI = CC50/IC50) [3] | IC50 [3] | SI (selectivity index, SI = CC50/IC50) [2] | IC50 ± SD [3]
Cc1ccc2ncc(/C=C/C(=O)c3cc[nH]c3)cc2c1 [4a] | 1.29 |  |  |  |  |  | 
COc1ccc2ncc(/C=C/C(=O)c3cc[nH]c3)cc2c1 [4b] | 1.18 |  |  |  |  |  | 
O=C(c1ccccc1)c1cccn1-c1ncccn1 [5aa] |  | > 401 | > 100 µg/mL | >1.55 | 260 ± 40.7 µM |  | 
Cc1ccc(C(=O)c2cccn2-c2ncccn2)cc1 [5ab] |  | > 381 | > 100 µg/mL |  | > 100 µg/mL |  | 
CC(C)(C)c1ccc(C(=O)c2cccn2-c2ncccn2)cc1 [5ac] |  | 91 ± 6.55 | 58.5 ± 7.04 µM | >2.77 | 32.9 ± 0.74 µM | >1.55 | 
O=C(c1ccc(F)cc1)c1cccn1-c1ncccn1 [5ad] |  | 270 ± 26.3 | > 100 µg/mL |  | > 100 µg/mL |  | inactive
O=C(c1ccc(Cl)cc1)c1cccn1-c1ncccn1 [5ae] |  | > 352 | 190 ± 6.76 µM | >3.01 | 117 ± 10.9 µM | >1.86 | 
N#Cc1ccc(C(=O)c2cccn2-c2ncccn2)cc1 [5ag] |  | > 365 | > 100 µg/mL |  | > 100 µg/mL |  | 
O=C(c1ccc([N+](=O)[O-])cc1)c1cccn1-c1ncccn1 [5ah] |  | > 340 | > 100 µg/mL |  | > 100 µg/mL |  | 
O=C(c1ccc(C(F)(F)F)cc1)c1cccn1-c1ncccn1 [5ai] |  | 150 ± 49.4 | 42.8 ± 0.61 µM | >3.13 | 48 ± 1.61 µM | >3.51 | 
COc1cc(OC)cc(C(=O)c2cccn2-c2ncccn2)c1 [5aj] |  | 88.3 ± 3.36 | 211 ± 32.8 µM | >2.71 | 32.5 ± 0.64 µM | >0.42 | 
COc1cc(C(=O)c2cccn2-c2ncccn2)cc(OC)c1OC [5ak] |  | 87.3 ± 7.37 | > 100 µg/mL |  | > 100 µg/mL |  | inactive
COc1ccc(C(=O)c2cccn2-c2ncccn2)c(OC)c1 [5al] |  | 224 ± 46.9 | > 100 µg/mL |  | > 100 µg/mL |  | 
O=C(c1cc(C(F)(F)F)cc(C(F)(F)F)c1)c1cccn1-c1ncccn1 [5am] |  | > 260 | 199 ± 25.4 µM | >4.53 | 57.34 ± 0.25 µM | >1.31 | 
O=C(c1ccc2ccccc2c1)c1cccn1-c1ncccn1 [5an] |  | 113 ± 39.2 | 58.5 ± 3.34 µM | >3.12 | 36.1 ± 1.23 µM | >1.93 | 
Cc1cccnc1-n1cccc1C(=O)c1ccccc1 [5ba] |  | > 381 | > 100 µg/mL | >2.50 | 153 ± 21.6 µM |  | 
Cc1ccc(C(=O)c2cccn2-c2ncccc2C)cc1 [5bb] |  | > 362 | 120 ± 15 µM | >2.43 | 149 ± 3.84 µM | >3.02 | 
Cc1cccnc1-n1cccc1C(=O)c1ccc(F)cc1 [5bd] |  | 137 ± 36.4 | 7.78 ± 0.27 µM |  | 16.9 ± 0.73 µM | >23.15 | 
Cc1cccnc1-n1cccc1C(=O)c1ccc(Cl)cc1 [5be] |  | 149 ± 19.3 | 20.7 ± 0.98 µM | >2.89 | 51.5 ± 4.72 µM | >7.19 | 
Cc1cccnc1-n1cccc1C(=O)c1ccc(Br)cc1 [5bf] |  | 120 ± 37.4 | 19.9 ± 1.47 µM | >3.14 | 38.1 ± 0.85 µM | >6.01 | 
Cc1cccnc1-n1cccc1C(=O)c1ccc(C#N)cc1 [5bg] |  | > 348 | 315 ± 60.8 µM | >1.81 | 192 ± 12 µM | >1.10 | 
COc1cc(OC)cc(C(=O)c2cccn2-c2ncccc2C)c1 [5bj] |  | 108 ± 5.76 | 43.5 ± 0.59 µM | >1.53 | 71.1 ± 7.81 µM |  | 
COc1cc(C(=O)c2cccn2-c2ncccc2C)cc(OC)c1OC [5bk] |  | 284 | > 100 µg/mL |  | > 100 µg/mL |  | inactive
COc1ccc(C(=O)c2cccn2-c2ncccc2C)cc1 [5bo] |  | > 342 | 173 ± 60.3 µM | >1.53 | 224 ± 14.7 µM | >1.98 | 
Cc1cccnc1-n1cccc1C(=O)c1cccc(OCc2ccccc2)c1 [5bp] |  | > 357 | 184 ± 8.67 µM | >1.31 | 208 ± 23.6 µM | >1.47 | 
Cc1cccnc1-n1cccc1C(=O)c1ccn(C(C)(C)C)c1 [5bq] |  | > 325 | 92.8 ± 7.68 µM | >1.56 | 209 ± 4.69 µM |  | 
Cc1cccnc1-n1cccc1C(=O)c1ccn(C)c1 [5br] |  | > 377 | > 100 µg/mL | >1.66 | 227 ± 13.4 µM |  | 
Cc1cccnc1-n1cccc1C(=O)c1ccoc1 [5bs] |  | > 396 | > 100 µg/mL |  | > 100 µg/mL |  | 
CN1CCC(c2cc(-c3ccncc3)c(-c3ccc(F)cc3)[nH]2)CC1 [compound 1] | 2.1 |  |  |  |  |  | 
CN1CCC(c2cc(-c3ccc(F)cc3)c(-c3ccncc3)[nH]2)CC1 [compound 2] | 0.6 |  |  |  |  |  | 
